Kd and IC50 data for 29 compounds are collected here from patent publication US20240025906A1 (NEURON23, INC., priority 2022, published 2024).

One test concerns the target T1, TYK2 JH2 (Homo sapiens, UniProt P29597).
T1 construct: purchased DiscoverX (KINOMEscan KdELECT service); host or cells: E. coli BL21-derived (T7 phage display) or HEK-293
The test is described as follows: TYK2 JH2 binding assay (KINOMEscan KdELECT competitive binding). The note with it: TYK2 JH2 domain, KINOMEscan KdELECT (Assay A); read-out: Biochemical TYK2_DiscoverX_JH2_BND_Kd. Put shortly: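 Kd values come from qPCR measurement of kinase retained on an immobilized-ligand resin after 1 h room-temperature competition with compound in an 11-point, 3-fold series.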

In test [1] the test system is JAK1/TYK2 pSTAT5 (Tyr694/699) in THP-1 cell line. The test is described as follows: IFNa-stimulated JAK1/TYK2 pSTAT5 (Tyr694/699) inhibition cellular assay, AlphaLISA. The note with it: Homo sapiens; THP-1 cells, IFNa-stimulated, AlphaLISA (Assay B); read-out: Cellular_THP1_IFNa-pSTATS_TYK2. It is filed as cell-based. In a few lines: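 THP-1, 2e4 cells/well, HBSS; cpd 1 h 37 °C (10000–0.04 nM final, 6-fold, 8 pt); IFNa 100 ng/mL added, 30 min; lyse, freeze −80 °C; pSTAT5 AlphaLISA, 615 nm; 4PL IC50, bottom fixed 0, slope −1.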

T1 sequence (P29597 589-875 limits assumed): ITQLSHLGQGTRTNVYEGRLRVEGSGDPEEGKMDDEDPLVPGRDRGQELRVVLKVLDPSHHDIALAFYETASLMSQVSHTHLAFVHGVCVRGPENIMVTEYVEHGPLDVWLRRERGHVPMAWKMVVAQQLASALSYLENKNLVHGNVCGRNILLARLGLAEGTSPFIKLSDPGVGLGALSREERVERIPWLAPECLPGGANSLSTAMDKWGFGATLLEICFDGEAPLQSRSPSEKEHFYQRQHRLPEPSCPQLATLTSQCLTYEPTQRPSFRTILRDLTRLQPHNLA

`CNc1ncc(C#Cc2ccc3ncn(C)c3c2)c2cc(NC(=O)C3CC3)ncc12` [Example 616, N-(5-((1-methyl-1H-benzo[d]imidazol-6-yl)ethynyl)-8-(methylamino)-2,7-naphthyridin-3-yl)cyclopropanecarboxamide]: the Kd at TYK2 JH2 is no more than 0.1 µM. For the same compound, the IC50 in test [1] was no more than 0.5 µM.

Regarding `CNc1ncc(C#Cc2ccc3cnn(C)c3c2)c2cc(NC(=O)C3CC3)ncc12` [Example 617], the Kd on TYK2 JH2 is no more than 0.1 µM. The IC50 in test [1] was no more than 0.5 µM.

Take `CNc1ncc(C#Cc2ccc3c(c2)nnn3C)c2cc(NC(=O)C3CC3)ncc12` [Example 618, N-(5-((1-methyl-1H-benzo[d][1,2,3]triazol-5-yl)ethynyl)-8-(methylamino)-2,7-naphthyridin-3-yl)cyclopropanecarboxamide]: on TYK2 JH2, the Kd is no more than 0.1 µM. The IC50 in test [1] was no more than 0.5 µM.

In the case of `CNc1ncc(C#Cc2cn3ccccc3n2)c2cc(NC(=O)C3CC3)ncc12` [Example 619, N-(5-(imidazo[1,2-a]pyridin-2-ylethynyl)-8-(methylamino)-2,7-naphthyridin-3-yl)cyclopropanecarboxamide], the Kd at TYK2 JH2 is no more than 0.1 µM. Also, the IC50 in test [1] was no more than 0.5 µM.

As for `CNc1ncc(C#Cc2ccc3ncccc3c2)c2cc(NC(=O)C3CC3)ncc12` [Example 620, N-(8-(methylamino)-5-(quinolin-6-ylethynyl)-2,7-naphthyridin-3-yl)cyclopropanecarboxamide], the Kd on TYK2 JH2 was no more than 0.1 µM. The IC50 in test [1] was no more than 0.5 µM.

For `CNc1ncc(C#Cc2ccnc(C(F)F)c2)c2cc(NC(=O)C3CC3)ncc12` [Example 621, N-(5-((2-(difluoromethyl)pyridin-4-yl)ethynyl)-8-(methylamino)-2,7-naphthyridin-3-yl)cyclopropanecarboxamide], at TYK2 JH2, the Kd was no more than 0.1 µM. Moreover, the IC50 in test [1] was no more than 0.5 µM.

`CNc1ncc(C#Cc2ccc3ocnc3c2)c2cc(NC(=O)C3CC3)ncc12` [Example 622, N-(5-(benzo[d]oxazol-5-ylethynyl)-8-(methylamino)-2,7-naphthyridin-3-yl)cyclopropanecarboxamide]: the Kd at TYK2 JH2 was no more than 0.1 µM. Also, in test [1], the IC50 is no more than 0.5 µM.

On to `CNc1ncc(C#Cc2ccnc(C(F)(F)F)c2)c2cc(NC(=O)C3CC3)ncc12` [Example 623, N-(8-(methylamino)-5-((2-(trifluoromethyl)pyridin-4-yl)ethynyl)-2,7-naphthyridin-3-yl)cyclopropanecarboxamide], for which, on TYK2 JH2, the Kd was no more than 0.1 µM. Besides, the IC50 in test [1] is no more than 0.5 µM.

Consider `CNc1ncc(C#Cc2ccc(N3CCOCC3)cc2)c2cc(NC(=O)C3CC3)ncc12` [Example 624, N-(8-(methylamino)-5-((4-morpholinophenyl)ethynyl)-2,7-naphthyridin-3-yl)cyclopropanecarboxamide], for which, at TYK2 JH2, the Kd was no more than 0.1 µM. Also, in test [1], the IC50 is no more than 0.5 µM.

Take `CNc1ncc(C#Cc2ccc3ncn(C4CC4)c3c2)c2cc(NC(=O)C3CC3)ncc12` [Example 625, N-(5-((1-cyclopropyl-1H-benzo[d]imidazol-6-yl)ethynyl)-8-(methylamino)-2,7-naphthyridin-3-yl)cyclopropanecarboxamide]: at TYK2 JH2, the Kd was no more than 0.1 µM. For the same compound, the IC50 in test [1] is no more than 0.5 µM.

As to `CNc1ncc(C#Cc2ccn3ccnc3c2)c2cc(NC(=O)C3CC3)ncc12` [Example 626, N-(5-(imidazo[1,2-a]pyridin-7-ylethynyl)-8-(methylamino)-2,7-naphthyridin-3-yl)cyclopropanecarboxamide], at TYK2 JH2, the Kd was no more than 0.1 µM. Also, the IC50 in test [1] was no more than 0.5 µM.

Take `CNc1ncc(C#Cc2ccc3nccnc3c2)c2cc(NC(=O)C3CC3)ncc12` [Example 627, N-(8-(methylamino)-5-(quinoxalin-6-ylethynyl)-2,7-naphthyridin-3-yl)cyclopropanecarboxamide]: on TYK2 JH2, the Kd is no more than 0.1 µM. In addition, the IC50 in test [1] is no more than 0.5 µM.

Consider `CNc1ncc(C#Cc2ccc3nc(C)sc3c2)c2cc(NC(=O)C3CC3)ncc12` [Example 628, N-(8-(methylamino)-5-((2-methylbenzo[d]thiazol-6-yl)ethynyl)-2,7-naphthyridin-3-yl)cyclopropanecarboxamide], for which, at TYK2 JH2, the Kd is no more than 0.1 µM. Besides, the IC50 in test [1] was no more than 0.5 µM.

Consider `CNc1ncc(C#Cc2cccc(OC)c2)c2cc(NC(=O)C3CC3)ncc12` [Example 629, N-(5-((3-methoxyphenyl)ethynyl)-8-(methylamino)-2,7-naphthyridin-3-yl)cyclopropanecarboxamide], for which, at TYK2 JH2, the Kd was no more than 0.1 µM. Moreover, the IC50 in test [1] was no more than 0.5 µM.

Regarding `CNc1ncc(C#Cc2ccccc2OC)c2cc(NC(=O)C3CC3)ncc12` [Example 630, N-(5-((2-methoxyphenyl)ethynyl)-8-(methylamino)-2,7-naphthyridin-3-yl)cyclopropanecarboxamide], the Kd on TYK2 JH2 was no more than 0.1 µM. Besides, the IC50 in test [1] was no more than 0.5 µM.

With `CNc1ncc(C#Cc2ccc(OC)nc2)c2cc(NC(=O)C3CC3)ncc12` [Example 631, N-(5-((6-methoxypyridin-3-yl)ethynyl)-8-(methylamino)-2,7-naphthyridin-3-yl)cyclopropanecarboxamide], at TYK2 JH2, the Kd is no more than 0.1 µM. In test [1], the IC50 is no more than 0.5 µM.

For `CNc1ncc(C#Cc2cnccn2)c2cc(NC(=O)C3CC3)ncc12` [Example 632, N-(8-(methylamino)-5-(pyrazin-2-ylethynyl)-2,7-naphthyridin-3-yl)cyclopropanecarboxamide], the Kd on TYK2 JH2 was no more than 0.1 µM. For the same compound, in test [1], the IC50 is no more than 0.5 µM.

As for `CNc1ncc(C#Cc2cnc3ccccn23)c2cc(NC(=O)C3CC3)ncc12` [Example 633, N-(5-(imidazo[1,2-a]pyridin-3-ylethynyl)-8-(methylamino)-2,7-naphthyridin-3-yl)cyclopropanecarboxamide], at TYK2 JH2, the Kd was no more than 0.1 µM. For the same compound, the IC50 in test [1] is no more than 0.5 µM.

As for `CNc1ncc(C#Cc2ccc(OC(C)C)cc2)c2cc(NC(=O)C3CC3)ncc12` [Example 634, N-(5-((4-isopropoxyphenyl)ethynyl)-8-(methylamino)-2,7-naphthyridin-3-yl)cyclopropanecarboxamide], the Kd on TYK2 JH2 is no more than 0.1 µM. In addition, the IC50 in test [1] is no more than 0.5 µM.

For `CNc1ncc(C#Cc2ccc(OC)cc2Cl)c2cc(NC(=O)C3CC3)ncc12` [Example 635, N-(5-((2-chloro-4-methoxyphenyl)ethynyl)-8-(methylamino)-2,7-naphthyridin-3-yl)cyclopropanecarboxamide], at TYK2 JH2, the Kd is no more than 0.1 µM. The IC50 in test [1] was no more than 0.5 µM.

With `CNc1ncc(C#Cc2c(Cl)cc(OC)cc2Cl)c2cc(NC(=O)C3CC3)ncc12` [Example 636, N-(5-((2,6-dichloro-4-methoxyphenyl)ethynyl)-8-(methylamino)-2,7-naphthyridin-3-yl)cyclopropanecarboxamide], the Kd on TYK2 JH2 was no more than 0.1 µM. Besides, the IC50 in test [1] is greater than 0.5 µM.

In the case of `CNc1ncc(C#Cc2ccc(S(=O)(=O)C3CC3)cc2)c2cc(NC(=O)C3CC3)ncc12` [Example 637, N-(5-((4-(cyclopropylsulfonyl)phenyl)ethynyl)-8-(methylamino)-2,7-naphthyridin-3-yl)cyclopropanecarboxamide], the Kd at TYK2 JH2 is no more than 0.1 µM. Moreover, in test [1], the IC50 is no more than 0.5 µM.

Regarding `CNc1ncc(C#Cc2ccc(OC3CC3)cc2)c2cc(NC(=O)C3CC3)ncc12` [Example 638, N-(5-((4-cyclopropoxyphenyl)ethynyl)-8-(methylamino)-2,7-naphthyridin-3-yl)cyclopropanecarboxamide], the Kd at TYK2 JH2 is no more than 0.1 µM. Moreover, in test [1], the IC50 was no more than 0.5 µM.

For the compound `CNc1ncc(C#Cc2ccc(N3CCOCC3)cc2C)c2cc(NC(=O)C3CC3)ncc12` [Example 639, N-(5-((2-methyl-4-morpholinophenyl)ethynyl)-8-(methylamino)-2,7-naphthyridin-3-yl)cyclopropanecarboxamide], the Kd on TYK2 JH2 was no more than 0.1 µM. In addition, the IC50 in test [1] is no more than 0.5 µM.

With `CNc1ncc(C#Cc2ccc(S(C)(=O)=O)cn2)c2cc(NC(=O)C3CC3)ncc12` [Example 640, N-(8-(methylamino)-5-((5-(methylsulfonyl)pyridin-2-yl)ethynyl)-2,7-naphthyridin-3-yl)cyclopropanecarboxamide], the Kd on TYK2 JH2 is no more than 0.1 µM. Besides, the IC50 in test [1] was no more than 0.5 µM.

Turning to `CNc1ncc(C#Cc2cccnn2)c2cc(NC(=O)C3CC3)ncc12` [Example 641, N-(8-(methylamino)-5-(pyridazin-3-ylethynyl)-2,7-naphthyridin-3-yl)cyclopropanecarboxamide], the Kd on TYK2 JH2 was no more than 0.1 µM. In test [1], the IC50 is no more than 0.5 µM.

With `CNc1ncc(C#Cc2ccc3oc(CO)cc3c2)c2cc(NC(=O)C3CC3)ncc12` [Example 642, N-(5-((2-(hydroxymethyl)benzofuran-5-yl)ethynyl)-8-(methylamino)-2,7-naphthyridin-3-yl)cyclopropanecarboxamide], at TYK2 JH2, the Kd was no more than 0.1 µM. Besides, the IC50 in test [1] is no more than 0.5 µM.

On to `CNc1ncc(C#Cc2ncc(OC)cc2Cl)c2cc(NC(=O)C3CC3)ncc12` [Example 643, N-(5-((3-chloro-5-methoxypyridin-2-yl)ethynyl)-8-(methylamino)-2,7-naphthyridin-3-yl)cyclopropanecarboxamide], for which, on TYK2 JH2, the Kd was no more than 0.1 µM. In test [1], the IC50 is no more than 0.5 µM.

As for `CNc1ncc(C#Cc2ccc(OC(F)(F)F)cn2)c2cc(NC(=O)C3CC3)ncc12` [Example 644, N-(8-(methylamino)-5-((5-(trifluoromethoxy)pyridin-2-yl)ethynyl)-2,7-naphthyridin-3-yl)cyclopropanecarboxamide], on TYK2 JH2, the Kd is no more than 0.1 µM. Also, in test [1], the IC50 is no more than 0.5 µM.
